For five compounds, IC50 results are on record in patent publication US9695167B2, “Substituted triazolo[1,5-a]pyridines and triazolo[1,5-a]pyrazines as LSD1 inhibitors” (Incyte Corporation, priority 2014, dated 2017).

In this experiment the target is LSD-1 enzyme (LSD1/KDM1A) (Homo sapiens (Human), UniProt O60341). Description: biochemical.
Procedure: LANCE LSD1/KDM1A demethylase assay—10 μL of 1 nM LSD-1 enzyme (ENZO BML-SE544-0050) in the assay buffer (50 mM Tris, pH 7.5, 0.01% Tween-20, 25 mM NaCl, 5 mM DTT) were preincubated for 1 hour at 25° C. with 0.8 μL compound/DMSO dotted in black 384 well polystyrene plates. […] After stopping the reactions plates were incubated for 30 minutes and read on a PHERAstar FS plate reader (BMG Labtech).
What is called IC50 is the concentration that inhibits the measured activity by half. A high value points to a need for much substance. Compound `Cc1ccc(-c2c(-c3ccc(C#N)cc3)cc(OC[C@@H]3CCNC3)c3ncnn23)cc1` [Example 1, 4-{5-(4-methylphenyl)-8-[(3R)-pyrrolidin-3-ylmethoxy][1,2,4]triazolo[1,5-a]pyridin-6-yl}benzonitrile] displayed an IC50 below 50 nM.
In the case of `Cc1ccc(-c2c(-c3ccc(C#N)cc3)cc(CCC3CCNC3)c3ncnn23)cc1` (centres unmarked) [Example 2, 4-[5-(4-methylphenyl)-8-(2-pyrrolidin-3-ylethyl)[1,2,4]triazolo[1,5-a]pyridin-6-yl]benzonitrile] it was below 50 nM.
For the compound `CN[C@H]1CCN(Cc2cc(-c3ccc(C#N)cc3)c(-c3ccc(C)cc3)n3ncnc23)C1` [Example 10, 4-[8-{[(3S)-3-(methylamino)pyrrolidin-1-yl]methyl}-5-(4-methylphenyl)[1,2,4]triazolo[1,5-a]pyridin-6-yl]benzonitrile], the IC50 is below 50 nM.
`CN[C@@H]1CCN(Cc2cc(-c3ccc(C#N)cc3)c(-c3ccc(C)cc3)n3ncnc23)C1` [Example 11, 4-[8-{[(3R)-3-(methylamino)pyrrolidin-1-yl]methyl}-5-(4-methylphenyl)[1,2,4]triazolo[1,5-a]pyridin-6-yl]benzonitrile] registered an IC50 below 50 nM.
The figure for `Cc1ccc(-c2c(-c3ccc(C#N)cc3)nc(OC[C@@H]3CCNC3)c3ncnn23)cc1` [Example 12, 4-{5-(4-methylphenyl)-8-[(3R)-pyrrolidin-3-ylmethoxy][1,2,4]triazolo[1,5-a]pyrazin-6-yl}benzonitrile] is below 50 nM.
